Test results: ChEMBL document CHEMBL3232909, “Arylamino bisphosphonates: potent and selective inhibitors of the tumor-associated carbonic anhydrase XII” (Bioorg Med Chem Lett, 2014)

What was measured:
Carbonic anhydrase 1 = Carbonic anhydrase 1 (Homo sapiens, UniProt P00915)
Description: Inhibition of human recombinant carbonic anhydrase 1 preincubated for 15 mins by stopped flow CO2 hydration method

Carbonic anhydrase 2 = Carbonic anhydrase 2 (Homo sapiens, UniProt P00918)
Description: Inhibition of human recombinant carbonic anhydrase 2 preincubated for 15 mins by stopped flow CO2 hydration method

Carbonic anhydrase 9 = Carbonic anhydrase 9 (Homo sapiens, UniProt Q16790)
Carbonic anhydrase 12 = Carbonic anhydrase 12 (Homo sapiens, UniProt O43570)
Carbonic anhydrase 12, sequence (O43570 whole entry): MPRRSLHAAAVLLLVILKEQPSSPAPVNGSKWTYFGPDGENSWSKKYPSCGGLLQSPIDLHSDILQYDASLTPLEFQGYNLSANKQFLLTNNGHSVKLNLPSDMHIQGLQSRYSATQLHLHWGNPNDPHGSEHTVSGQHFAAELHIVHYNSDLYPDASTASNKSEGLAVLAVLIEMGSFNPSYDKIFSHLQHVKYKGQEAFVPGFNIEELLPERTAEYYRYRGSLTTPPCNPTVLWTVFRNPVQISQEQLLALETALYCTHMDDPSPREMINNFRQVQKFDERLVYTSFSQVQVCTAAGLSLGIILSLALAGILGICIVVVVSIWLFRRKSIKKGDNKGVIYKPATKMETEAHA
Description: Inhibition of human recombinant carbonic anhydrase 12 preincubated for 15 mins by stopped flow CO2 hydration method

Carbonic anhydrase 14 = Carbonic anhydrase 14 (Homo sapiens, UniProt Q9ULX7)
Carbonic anhydrase 14, sequence (Q9ULX7 whole entry): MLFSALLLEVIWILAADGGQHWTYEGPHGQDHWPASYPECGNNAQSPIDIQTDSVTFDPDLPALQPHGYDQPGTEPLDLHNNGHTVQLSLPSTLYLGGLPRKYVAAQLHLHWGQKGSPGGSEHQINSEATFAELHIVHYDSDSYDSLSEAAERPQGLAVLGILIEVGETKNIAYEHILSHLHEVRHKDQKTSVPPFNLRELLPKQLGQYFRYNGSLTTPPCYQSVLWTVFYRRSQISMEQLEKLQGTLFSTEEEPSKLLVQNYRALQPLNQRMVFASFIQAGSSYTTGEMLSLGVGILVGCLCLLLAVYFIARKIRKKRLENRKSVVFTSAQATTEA
Description: Inhibition of human recombinant carbonic anhydrase 14 preincubated for 15 mins by stopped flow CO2 hydration method

Carbonic anhydrase 1, sequence (P00915 whole entry): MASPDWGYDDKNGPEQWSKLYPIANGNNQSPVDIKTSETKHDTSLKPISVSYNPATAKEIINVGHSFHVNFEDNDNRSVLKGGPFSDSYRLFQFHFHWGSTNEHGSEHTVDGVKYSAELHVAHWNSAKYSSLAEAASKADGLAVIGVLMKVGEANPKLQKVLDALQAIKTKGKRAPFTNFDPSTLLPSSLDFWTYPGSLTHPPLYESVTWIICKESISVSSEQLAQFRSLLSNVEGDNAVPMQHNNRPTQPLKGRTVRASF

With O=P(O)(O)C(Nc1ccc(Cl)c(Cl)c1)P(=O)(O)O [3,4-DICHLOROPHENYLAMINOMETHYLENEBISPHOSPHONIC ACID] the IC50 (Carbonic anhydrase 1) was > 10 µM, the IC50 (Carbonic anhydrase 2) was > 10 µM and the IC50 (Carbonic anhydrase 9) was > 10 µM. For the same molecule, the IC50 (Carbonic anhydrase 12) was > 10 µM and the IC50 (Carbonic anhydrase 14) was 7.84 µM.
In the case of O=P(O)(O)C(Nc1ccc(-c2ccccc2)cc1)P(=O)(O)O, the IC50 (Carbonic anhydrase 1) is reported as > 10 µM, the IC50 (Carbonic anhydrase 2) is reported as > 10 µM and the IC50 (Carbonic anhydrase 9) is reported as > 10 µM. The IC50 (Carbonic anhydrase 12) was > 10 µM and the IC50 (Carbonic anhydrase 14) was 8.21 µM.
O=P(O)(O)C(Nc1ccc(O)cc1)P(=O)(O)O was tested, and the IC50 (Carbonic anhydrase 1) was 4.57 µM, the IC50 (Carbonic anhydrase 2) was 8.2 µM and the IC50 (Carbonic anhydrase 9) was > 10 µM. The IC50 (Carbonic anhydrase 12) was 0.078 µM and the IC50 (Carbonic anhydrase 14) was > 10 µM.
For O=P(O)(O)C(Nc1cccc(F)c1)P(=O)(O)O, the IC50 (Carbonic anhydrase 1) was > 10 µM, the IC50 (Carbonic anhydrase 2) was > 10 µM and the IC50 (Carbonic anhydrase 9) was 8.23 µM. The IC50 (Carbonic anhydrase 12) was 8.69 µM and the IC50 (Carbonic anhydrase 14) was 0.082 µM.
In the case of O=P(O)(O)C(Nc1cccc2ccccc12)P(=O)(O)O, the IC50 (Carbonic anhydrase 1) is reported as > 10 µM, the IC50 (Carbonic anhydrase 2) is reported as 9.09 µM and the IC50 (Carbonic anhydrase 9) is reported as > 10 µM. The IC50 (Carbonic anhydrase 12) was 6.92 µM and the IC50 (Carbonic anhydrase 14) was 0.319 µM.
O=[N+]([O-])c1cc(NC(P(=O)(O)O)P(=O)(O)O)ccc1F was tested, and the IC50 (Carbonic anhydrase 1) was 5.53 µM, the IC50 (Carbonic anhydrase 2) was > 10 µM and the IC50 (Carbonic anhydrase 9) was > 10 µM. For the same molecule, the IC50 (Carbonic anhydrase 12) was > 10 µM and the IC50 (Carbonic anhydrase 14) was 8.81 µM.
O=P(O)(O)C(Nc1ccc(C(F)(F)F)cc1)P(=O)(O)O was tested, and the IC50 (Carbonic anhydrase 1) was 6.08 µM, the IC50 (Carbonic anhydrase 2) was > 10 µM and the IC50 (Carbonic anhydrase 9) was > 10 µM. The IC50 (Carbonic anhydrase 12) was 0.089 µM and the IC50 (Carbonic anhydrase 14) was > 10 µM.
O=[N+]([O-])c1cccc(NC(P(=O)(O)O)P(=O)(O)O)c1 [(3-NITROPHENYLAMINO)METHYLENEDIPHOSPHONIC ACID] was tested, and the IC50 (Carbonic anhydrase 1) was 0.814 µM, the IC50 (Carbonic anhydrase 2) was > 10 µM and the IC50 (Carbonic anhydrase 9) was > 10 µM. For the same molecule, the IC50 (Carbonic anhydrase 12) was 0.088 µM and the IC50 (Carbonic anhydrase 14) was > 10 µM.
With O=P(O)(O)C(Nc1cccc(-c2ccccc2)c1)P(=O)(O)O the IC50 (Carbonic anhydrase 1) was > 10 µM, the IC50 (Carbonic anhydrase 2) was 9.37 µM and the IC50 (Carbonic anhydrase 9) was 7.63 µM. The IC50 (Carbonic anhydrase 12) was > 10 µM and the IC50 (Carbonic anhydrase 14) was 0.309 µM.
In the case of O=[N+]([O-])c1ccc(NC(P(=O)(O)O)P(=O)(O)O)cc1, the IC50 (Carbonic anhydrase 1) is reported as 7.98 µM, the IC50 (Carbonic anhydrase 2) is reported as > 10 µM and the IC50 (Carbonic anhydrase 9) is reported as > 10 µM. For the same molecule, the IC50 (Carbonic anhydrase 12) was 0.419 µM and the IC50 (Carbonic anhydrase 14) was > 10 µM.
For O=P(O)(O)C(Nc1cccc(Br)c1)P(=O)(O)O, the IC50 (Carbonic anhydrase 1) was 8.29 µM, the IC50 (Carbonic anhydrase 2) was > 10 µM and the IC50 (Carbonic anhydrase 9) was > 10 µM. The IC50 (Carbonic anhydrase 12) was > 10 µM and the IC50 (Carbonic anhydrase 14) was 0.911 µM.
For O=P(O)(O)C(Nc1ccc(Cl)cc1Cl)P(=O)(O)O [2,4-DICHLOROPHENYLAMINOMETHYLENEBISPHOSPHONIC ACID], the IC50 (Carbonic anhydrase 1) was 7.14 µM, the IC50 (Carbonic anhydrase 2) was > 10 µM and the IC50 (Carbonic anhydrase 9) was > 10 µM. The IC50 (Carbonic anhydrase 12) was > 10 µM and the IC50 (Carbonic anhydrase 14) was 7.46 µM.
With O=P(O)(O)C(Nc1ccc(Oc2ccc(Cl)cc2)cc1)P(=O)(O)O the IC50 (Carbonic anhydrase 1) was > 10 µM, the IC50 (Carbonic anhydrase 2) was 9.37 µM and the IC50 (Carbonic anhydrase 9) was 8.23 µM. For the same molecule, the IC50 (Carbonic anhydrase 12) was > 10 µM and the IC50 (Carbonic anhydrase 14) was 4.42 µM.
With O=P(O)(O)C(Nc1ccc(Br)cc1)P(=O)(O)O the IC50 (Carbonic anhydrase 1) was > 10 µM, the IC50 (Carbonic anhydrase 2) was > 10 µM and the IC50 (Carbonic anhydrase 9) was > 10 µM. For the same molecule, the IC50 (Carbonic anhydrase 12) was 0.239 µM and the IC50 (Carbonic anhydrase 14) was > 10 µM.
For O=P(O)(O)C(Nc1ccccc1)P(=O)(O)O [(PHENYLAMINO)METHYLENEDIPHOSPHONIC ACID], the IC50 (Carbonic anhydrase 1) was > 10 µM, the IC50 (Carbonic anhydrase 2) was > 10 µM and the IC50 (Carbonic anhydrase 9) was 8.92 µM. For the same molecule, the IC50 (Carbonic anhydrase 12) was 0.437 µM and the IC50 (Carbonic anhydrase 14) was > 10 µM.
With Cc1ccc(NC(P(=O)(O)O)P(=O)(O)O)cc1 [(P-TOLYLAMINO)METHYLENEDIPHOSPHONIC ACID] the IC50 (Carbonic anhydrase 1) was 5.93 µM, the IC50 (Carbonic anhydrase 2) was > 10 µM and the IC50 (Carbonic anhydrase 9) was > 10 µM. For the same molecule, the IC50 (Carbonic anhydrase 12) was 0.35 µM and the IC50 (Carbonic anhydrase 14) was > 10 µM.
In the case of O=P(O)(O)C(Nc1cccc(C(F)(F)F)c1)P(=O)(O)O, the IC50 (Carbonic anhydrase 1) is reported as 5.83 µM, the IC50 (Carbonic anhydrase 2) is reported as > 10 µM and the IC50 (Carbonic anhydrase 9) is reported as > 10 µM. For the same molecule, the IC50 (Carbonic anhydrase 12) was 0.092 µM and the IC50 (Carbonic anhydrase 14) was > 10 µM.
For O=P(O)(O)C(Nc1ccc(Oc2ccccc2)cc1)P(=O)(O)O, the IC50 (Carbonic anhydrase 1) was > 10 µM, the IC50 (Carbonic anhydrase 2) was > 10 µM and the IC50 (Carbonic anhydrase 9) was 8.21 µM. For the same molecule, the IC50 (Carbonic anhydrase 12) was > 10 µM and the IC50 (Carbonic anhydrase 14) was 5.5 µM.
For O=P(O)(O)C(Nc1ccc(Oc2ccc(Br)cc2)cc1)P(=O)(O)O, the IC50 (Carbonic anhydrase 1) was > 10 µM, the IC50 (Carbonic anhydrase 2) was 7.47 µM and the IC50 (Carbonic anhydrase 9) was 8.17 µM. The IC50 (Carbonic anhydrase 12) was > 10 µM and the IC50 (Carbonic anhydrase 14) was 6.12 µM.
With O=P(O)(O)C(Nc1ccc(F)cc1)P(=O)(O)O the IC50 (Carbonic anhydrase 1) was > 10 µM, the IC50 (Carbonic anhydrase 2) was > 10 µM and the IC50 (Carbonic anhydrase 9) was > 10 µM. The IC50 (Carbonic anhydrase 12) was 0.269 µM and the IC50 (Carbonic anhydrase 14) was > 10 µM.
O=P(O)(O)C(O)(Cn1ccnc1)P(=O)(O)O [ZOLEDRONIC ACID] was tested, and the IC50 (Carbonic anhydrase 1) was > 10 µM, the IC50 (Carbonic anhydrase 2) was 0.062 µM and the IC50 (Carbonic anhydrase 9) was 5.32 µM. It also gave an IC50 (Carbonic anhydrase 12) of 0.316 µM and an IC50 (Carbonic anhydrase 14) of 0.092 µM.
